ChEMBL document CHEMBL1132549, “Design and structure-activity relationship of a new class of potent VEGF receptor tyrosine kinase inhibitors” (J Med Chem, 1999)
Active and inactive are the calls of the source. No cut-off for these calls is given here.

Columns and labels:
[1] = target: Vascular endothelial growth factor receptor 2 (Homo sapiens, UniProt P35968)
[2] = system: Rattus norvegicus; assay: Percent inhibition of VEGF-mediated estradiol benzoate-induced rat uterus weight gain at 100 mg/kg oral dose; type: functional
[3] = target: Fibroblast growth factor receptor 1 (Homo sapiens, UniProt P11362)
[4] = target: Vascular endothelial growth factor receptor (Homo sapiens, UniProt P17948+P35916+P35968); settings: huvec
[5] = system: HUVEC; assay: Inhibition of unstimulated HUVEC cell proliferation; type: functional, cell-based; settings: Homo sapiens
[6] = target: Fibroblast growth factor receptor (Homo sapiens, UniProt P22607+P11362+P22455+P21802); settings: huvec
[7] = target: Vascular endothelial growth factor receptor 1 (Homo sapiens, UniProt P17948)
[8] = system: Rattus norvegicus; assay: Percent inhibition of VEGF-mediated estradiol benzoate-induced rat uterus weight gain at 100 mg/kg oral dose; NA is Not Active; type: functional, organism-based; parameters: dose 100 mg/kg
[9] = Mouse plasma levels are obtained 24 hr after oral administration of 100 mg/kg of compound.; type: ADME, organism-based; parameters: dose 100 mg/kg, route oral; settings: read-out: Plasma level
[10] = Mouse plasma levels are obtained 6 hr after oral administration of 100 mg/kg of compound.; type: ADME, organism-based; parameters: dose 100 mg/kg, route oral; settings: read-out: Plasma level
[11] = system: Rattus norvegicus; assay: Percent inhibition of VEGF-mediated estradiol benzoate-induced rat uterus weight gain at 60 mg/kg oral dose; type: functional

Chain of Vascular endothelial growth factor receptor 2 (P35968 whole entry): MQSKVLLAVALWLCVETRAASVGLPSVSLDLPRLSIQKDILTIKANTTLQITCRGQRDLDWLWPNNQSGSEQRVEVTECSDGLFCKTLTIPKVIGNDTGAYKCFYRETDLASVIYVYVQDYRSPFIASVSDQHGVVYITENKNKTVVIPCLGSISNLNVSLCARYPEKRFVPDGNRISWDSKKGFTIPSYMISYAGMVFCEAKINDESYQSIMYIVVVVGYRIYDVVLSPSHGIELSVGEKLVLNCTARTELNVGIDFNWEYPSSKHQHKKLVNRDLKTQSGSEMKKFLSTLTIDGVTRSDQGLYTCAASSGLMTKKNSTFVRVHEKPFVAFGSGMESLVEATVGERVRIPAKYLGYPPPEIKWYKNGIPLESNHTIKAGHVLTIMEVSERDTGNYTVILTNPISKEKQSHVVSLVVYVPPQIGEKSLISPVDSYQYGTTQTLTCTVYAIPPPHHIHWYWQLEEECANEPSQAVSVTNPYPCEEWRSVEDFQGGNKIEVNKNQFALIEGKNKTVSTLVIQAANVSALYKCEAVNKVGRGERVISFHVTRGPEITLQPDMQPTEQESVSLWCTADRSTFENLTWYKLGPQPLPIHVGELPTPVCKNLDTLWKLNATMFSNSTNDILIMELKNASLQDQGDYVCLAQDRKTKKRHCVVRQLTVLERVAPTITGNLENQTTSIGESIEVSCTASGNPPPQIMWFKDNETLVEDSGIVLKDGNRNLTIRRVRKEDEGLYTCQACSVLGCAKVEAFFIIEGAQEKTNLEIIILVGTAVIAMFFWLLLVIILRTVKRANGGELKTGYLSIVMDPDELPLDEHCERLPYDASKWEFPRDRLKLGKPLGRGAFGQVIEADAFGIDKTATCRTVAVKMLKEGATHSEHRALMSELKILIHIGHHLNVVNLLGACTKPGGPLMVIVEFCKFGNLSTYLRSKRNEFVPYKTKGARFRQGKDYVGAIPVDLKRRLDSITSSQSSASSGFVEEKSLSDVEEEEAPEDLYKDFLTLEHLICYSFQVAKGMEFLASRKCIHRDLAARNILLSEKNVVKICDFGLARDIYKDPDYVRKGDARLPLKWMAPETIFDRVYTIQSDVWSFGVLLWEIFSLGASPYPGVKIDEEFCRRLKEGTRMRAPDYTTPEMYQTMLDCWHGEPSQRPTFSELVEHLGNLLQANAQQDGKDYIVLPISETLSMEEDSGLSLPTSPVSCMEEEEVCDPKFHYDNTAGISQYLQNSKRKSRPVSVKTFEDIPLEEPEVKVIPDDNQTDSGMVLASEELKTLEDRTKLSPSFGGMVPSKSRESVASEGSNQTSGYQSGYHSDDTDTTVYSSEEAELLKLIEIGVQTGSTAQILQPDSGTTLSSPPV
Chain of Fibroblast growth factor receptor 1 (P11362 whole entry): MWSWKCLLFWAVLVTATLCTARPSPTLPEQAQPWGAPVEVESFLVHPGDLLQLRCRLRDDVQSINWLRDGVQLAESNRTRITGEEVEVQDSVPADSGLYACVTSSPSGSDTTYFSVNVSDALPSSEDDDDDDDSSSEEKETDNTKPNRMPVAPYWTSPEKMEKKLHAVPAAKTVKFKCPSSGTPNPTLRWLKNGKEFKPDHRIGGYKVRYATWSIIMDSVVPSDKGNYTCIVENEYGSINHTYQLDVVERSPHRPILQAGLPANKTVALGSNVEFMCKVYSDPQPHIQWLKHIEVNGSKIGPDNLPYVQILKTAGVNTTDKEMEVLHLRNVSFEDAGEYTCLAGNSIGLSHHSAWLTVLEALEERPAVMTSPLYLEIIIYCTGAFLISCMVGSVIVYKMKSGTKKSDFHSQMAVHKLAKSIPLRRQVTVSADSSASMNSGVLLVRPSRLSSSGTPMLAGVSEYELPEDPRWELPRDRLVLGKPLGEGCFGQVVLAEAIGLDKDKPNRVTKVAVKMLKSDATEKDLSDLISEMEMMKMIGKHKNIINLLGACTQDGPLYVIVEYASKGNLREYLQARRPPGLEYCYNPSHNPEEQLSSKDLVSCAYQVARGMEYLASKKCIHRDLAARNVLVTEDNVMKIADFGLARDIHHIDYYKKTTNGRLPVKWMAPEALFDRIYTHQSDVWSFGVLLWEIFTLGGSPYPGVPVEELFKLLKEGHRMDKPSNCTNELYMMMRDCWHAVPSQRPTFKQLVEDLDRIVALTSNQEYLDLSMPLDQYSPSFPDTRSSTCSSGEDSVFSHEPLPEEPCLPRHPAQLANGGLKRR
Chain of Vascular endothelial growth factor receptor 1 (P17948 whole entry): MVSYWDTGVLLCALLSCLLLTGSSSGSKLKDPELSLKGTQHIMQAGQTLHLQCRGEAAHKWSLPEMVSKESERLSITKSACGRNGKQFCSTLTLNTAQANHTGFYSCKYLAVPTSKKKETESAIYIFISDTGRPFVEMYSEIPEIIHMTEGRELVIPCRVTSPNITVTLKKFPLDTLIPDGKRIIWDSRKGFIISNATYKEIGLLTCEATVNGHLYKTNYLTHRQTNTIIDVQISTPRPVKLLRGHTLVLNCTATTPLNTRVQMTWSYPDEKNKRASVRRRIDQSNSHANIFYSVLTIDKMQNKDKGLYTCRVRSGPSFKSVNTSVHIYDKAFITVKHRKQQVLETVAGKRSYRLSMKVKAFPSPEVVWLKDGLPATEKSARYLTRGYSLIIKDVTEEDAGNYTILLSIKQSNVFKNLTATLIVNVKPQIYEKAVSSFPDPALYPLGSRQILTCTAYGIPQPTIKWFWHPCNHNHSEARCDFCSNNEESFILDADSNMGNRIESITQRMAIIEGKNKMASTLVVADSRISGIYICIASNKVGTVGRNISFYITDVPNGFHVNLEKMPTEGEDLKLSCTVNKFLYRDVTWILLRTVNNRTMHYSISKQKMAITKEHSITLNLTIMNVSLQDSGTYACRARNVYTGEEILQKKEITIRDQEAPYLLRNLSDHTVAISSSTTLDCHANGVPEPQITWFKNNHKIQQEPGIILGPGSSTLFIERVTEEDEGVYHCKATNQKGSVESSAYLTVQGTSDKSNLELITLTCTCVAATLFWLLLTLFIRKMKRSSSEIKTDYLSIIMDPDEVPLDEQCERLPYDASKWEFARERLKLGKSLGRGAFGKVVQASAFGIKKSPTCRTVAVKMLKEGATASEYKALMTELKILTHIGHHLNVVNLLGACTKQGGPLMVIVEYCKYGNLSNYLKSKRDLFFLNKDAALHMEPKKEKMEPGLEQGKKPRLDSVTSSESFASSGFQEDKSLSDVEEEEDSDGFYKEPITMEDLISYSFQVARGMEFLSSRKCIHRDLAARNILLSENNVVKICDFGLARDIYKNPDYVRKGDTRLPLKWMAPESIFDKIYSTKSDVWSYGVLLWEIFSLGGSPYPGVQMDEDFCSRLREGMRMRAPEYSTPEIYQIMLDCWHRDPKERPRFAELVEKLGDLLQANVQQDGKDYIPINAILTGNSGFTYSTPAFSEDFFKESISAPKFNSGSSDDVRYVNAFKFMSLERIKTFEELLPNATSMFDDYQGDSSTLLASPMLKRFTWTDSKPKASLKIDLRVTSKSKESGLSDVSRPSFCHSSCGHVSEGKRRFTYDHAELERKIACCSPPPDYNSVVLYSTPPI

SMILES | IC50 [1] [nM] | IC50 [3] [nM] | IC50 [7] [nM] | also measured
COc1cc2ncnc(Nc3ccc(Cl)cc3F)c2cc1OC | 100 | 7000 |  | inhibition in vivo at 100 mg/kg [2]: 34%
COc1cc2c(Nc3c(F)cc(Br)cc3F)ncnc2cc1OCCn1ccnn1 | 40 |  | 800 | IC50 [4]: 20 nM; IC50 [5]: 1000 nM; IC50 [6]: 100 nM
COc1cc2c(Nc3ccc(Cl)cc3F)ncnc2cc1OCCCCN1CCOCC1 | 40 | 1500 | 300 | 
COc1cc2ncnc(Nc3ccc(I)cc3F)c2cc1OC |  |  | 800 | 
COc1cc2c(Nc3ccc(Cl)cc3F)ncnc2cc1OCCN1CCOCC1 | 40 | 19000 | 1100 | 
COCCOc1cc2ncnc(Nc3cccc(O)c3)c2cc1OC | < 5 | 7000 | 30 | inhibition [8]: inactive
COc1cc2c(Nc3ccc(Cl)cc3F)ncnc2cc1OCCn1ccnc1 |  |  |  | concentration at 24 h [9]: < 0.1 µM; concentration at 6 h [10]: 11 µM
COc1cc2c(Nc3ccc(Cl)cc3F)ncnc2cc1OC1CCN(C)CC1 | 1500 | 40000 | 15000 | 
COc1cc2ncnc(Nc3ccc(I)cc3Cl)c2cc1OC |  |  | > 33000 | 
COCCOc1cc2nncc(Nc3cc(O)c(Cl)cc3F)c2cc1OC |  |  | 50 | 
COCCOc1cc2nncc(Nc3ccc(Cl)cc3F)c2cc1OC |  |  | 63000 | 
COCC(=O)Nc1cc2ncnc(Nc3cc(O)c(C)cc3F)c2cc1OC | 300 | > 100000 | 300 | 
COCCOc1cc2ncnc(Nc3ccc(Cl)cc3F)c2cc1OC | 7 | 27000 | 400 | concentration at 24 h [9]: < 0.1 µM; inhibition in vivo at 100 mg/kg [2]: 31%; concentration at 6 h [10]: 12 µM
COc1cc2c(Nc3ccc(Cl)cc3F)ncnc2cc1OCCCN1CCOCC1 | 9 | 6700 |  | concentration at 24 h [9]: 0.8 µM; inhibition in vivo at 100 mg/kg [2]: 59%; concentration at 6 h [10]: 4 µM
COCCOc1cc2nccc(Nc3ccc(Cl)cc3F)c2cc1OC | 10 | 9300 | 300 | concentration at 6 h [10]: 3 µM
COc1cc2c(Nc3ccc(Cl)cc3F)ncnc2cc1OCCN(C)c1ccncc1 | 6 | 1600 | 100 | 

SMILES | IC50 [1] [nM] | IC50 [3] [nM] | IC50 [7] [nM] | also measured
COCC(=O)Nc1cc2ncnc(Nc3ccc(Cl)cc3F)c2cc1OC | > 100000 | > 50000 | > 100000 | 
COc1cc2ncnc(Nc3ccc(F)c(Cl)c3)c2cc1OC | 800 | > 100000 | > 100000 | 
COc1cc2c(Nc3ccc(Cl)cc3F)ncnc2cc1OCc1ccncc1 | 60 | > 33000 | 1200 | 
COc1cc2c(Nc3ccc(C#N)cc3F)ncnc2cc1OCCn1ccnn1 | 300 | 45000 | 8100 | IC50 [4]: 600 nM; IC50 [5]: > 10000 nM; IC50 [6]: 3000 nM
COc1cc2ncnc(Nc3ccc(F)cc3F)c2cc1OC | 2900 | 58000 | 22000 | 
COc1cc2ncnc(Nc3cc(O)c(C)cc3F)c2cc1OC | 3 | 2500 | 30 | inhibition in vivo at 60 mg/kg [11]: 80%; concentration at 24 h [9]: < 0.2 µM; concentration at 6 h [10]: < 0.2 µM
COc1cc2c(Nc3ccc(Cl)cc3F)ncnc2cc1OCCOCCN1CCOCC1 | 60 | 20000 | 500 | concentration at 24 h [9]: < 0.1 µM; concentration at 6 h [10]: 11 µM
COc1cc2c(Nc3ccc(Br)cc3F)ncnc2cc1OCCn1ccnn1 [ZD-4190 FREE BASE] | 30 | > 100000 | 700 | IC50 [5]: > 10000 nM; IC50 [6]: 1500 nM
COc1cc2ncnc(Nc3cccc(O)c3)c2cc1OC |  | 11000 | 200 | 
COCCOc1cc2ncnc(Nc3cc(O)c(Cl)cc3F)c2cc1OC | < 2 | 7400 | < 2 | IC50 [4]: 4 nM; concentration at 24 h [9]: < 0.1 µM; IC50 [5]: 5000 nM; IC50 [6]: 800 nM; concentration at 6 h [10]: < 0.1 µM
COc1cc2c(Nc3ccc(Cl)cc3F)ncnc2cc1OCCn1ccnn1 |  |  |  | concentration at 24 h [9]: 10 µM; IC50 [5]: 5000 nM; concentration at 6 h [10]: 49 µM
COCCOc1cc2nccc(Nc3cc(O)c(Cl)cc3F)c2cc1OC | < 2 | 1400 | 3 | 
COc1cc2ncnc(Nc3ccc(Cl)cc3)c2cc1OC | 800 | > 100000 | 11000 | 
COCCOc1ccc2c(Nc3ccc(Cl)cc3F)ncnc2c1 |  | 16000 | 1500 | 
COCCOc1cc2ncnc(Nc3ccc(Cl)cc3F)c2cc1OCCOC | 60 | > 100000 | 900 | 
COc1cc2ncnc(Nc3ccccc3F)c2cc1OC | 2700 | > 100000 | 26000 | 
